Test results published in patent US8440417B2, “Method for assaying compounds or agents for ability to displace potent ligands of hematopoietic prostaglandin D synthase” (Cayman Chemical Company, Incorporated, priority 2008, dated 2013).
Read-outs that look alike come from different tables or passages of the source.

Tests used:
MBP-H-PGDS fusion enzyme = MBP-H-PGDS fusion enzyme (Homo sapiens, UniProt O60760); test: MBP-H-PGDS fluorescence polarization (FP) displacement assay; assay type: binding; details: detection analyte Compound 20; mean ± spread, N in cell; read-out: MBP-H-PGDS FP Assay: test compound IC50
Chain of MBP-H-PGDS fusion enzyme (O60760 2-199, looked up): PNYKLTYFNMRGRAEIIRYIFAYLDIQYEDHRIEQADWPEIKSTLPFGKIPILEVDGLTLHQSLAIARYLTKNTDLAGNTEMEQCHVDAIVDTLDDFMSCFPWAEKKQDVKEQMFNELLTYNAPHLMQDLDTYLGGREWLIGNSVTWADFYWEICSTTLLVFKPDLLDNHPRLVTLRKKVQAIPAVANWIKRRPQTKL
Experimental: Detection analyte and H-PGDS-MBP fusion enzyme were incubated in the presence of reduced glutathione (5 mM) for 30-60 minutes at room temperature and FP was measured using a TECAN SAFIRE 2 plate reader equipped with absorbance, fluorescence, fluorescence polarization and FRET capabilities. Assays were performed in 96-well microtiter plates in 100 μL of total sample volume. Excitation and emission wavelengths appropriate for the employed detection analyte were used.
H-PGDS-Maltose binding protein (MBP; 100 μl, 0.5 mg/ml) fusion (MBP-H-PGDS fusion) (FIG. 6) was diluted with 1×FP buffer (900 μL).
Into a 50 mL conical tube was added the H-PGDS 1×FP buffer (18.65 mL), H-PGDS FP fluorescent probe—green (138 μL), MBP-H-PGDS fusion dilution (880 μL), and glutathione solution (1,250 μL).
Assay cocktail (47.5 μL) was added to each plate well.
Test compound solutions (2.5 μL) were added to the wells. […] The IC50 for a particular test compound was obtained by performing a full concentration titration versus a full concentration titration of positive control. Comparison of a single concentration of a test compound to the maximum binding well provided an assessment of the relative affinity of the test compound for MBP-H-PGDS.
The plate was covered and incubated for 60-90 minutes at room temperature. The FP signal is stable for at least two hours.
Plates were read with excitation and emission wavelengths of 470 nm and 530 nm (for detection analyte comprising the fluorescein fluorophore), respectively.
fluorescence polarization of a molecule is defined as: Polarization (mP)=1,000×(Iparallel−Iperpendicular)/(Iparallel+Iperpendicular) where Iparallel is the parallel emission intensity measurement and Iperpendicular is the perpendicular emission intensity measurement.
The clone was then transformed into the expression strain BL21 (DE3) star cells and a glycerol stock was generated. The expected size is 66.29 kDa.

H-PGDS [1] = target: T1, H-PGDS (Homo sapiens, UniProt O60760); details: order of magnitude in words; cited from earlier work
T1 sequence (O60760 whole entry, species assumed): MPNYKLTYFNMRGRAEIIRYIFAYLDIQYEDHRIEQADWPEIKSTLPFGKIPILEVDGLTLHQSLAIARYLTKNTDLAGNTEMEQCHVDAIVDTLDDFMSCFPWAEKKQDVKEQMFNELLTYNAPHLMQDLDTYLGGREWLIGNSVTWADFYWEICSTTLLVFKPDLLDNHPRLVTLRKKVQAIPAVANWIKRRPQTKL

[2] = test system: PGD2 levels in guinea pig lung tissues; details: chronic treatment; Matsushita et al. 1998; cited from earlier work
H-PGDS [3] = target: T1, H-PGDS; details: [1-14C]PGH2 to [1-14C]PGD2, RIA; Aritake et al. 2006; read-out: Reported H-PGDS inhibition IC50; cited from earlier work
H-PGDS [4] = target: T1, H-PGDS; details: Taiho poster / patent application, method not stated; read-out: Reported H-PGDS inhibition IC50; cited from earlier work
H-PGDS [5] = target: T1, H-PGDS; details: GSH-MCB conjugation, fluorometry; Evotec WO 2008/122787, AstraZeneca J. Med. Chem. 2008; read-out: Reported H-PGDS inhibition IC50; cited from earlier work

Row | SMILES | IC50 (MBP-H-PGDS fusion enzyme) | also measured
1 | O=C(NCc1ccccc1)c1cnc(-c2ccccc2)nc1 | 0.125 µM | –
2 | c1ccc(C(OC2CCN(CCCc3nnn[nH]3)CC2)c2ccccc2)cc1 | 15 µM | IC50 against H-PGDS in known in vitro assays (H-PGDS [1]): micromolar; PGD2 levels in guinea pig lung tissues [2]: reduce PGD2 levels; IC50 (H-PGDS [3]): 6 µM
3 | O=C(NC1CCN(Cc2ccccc2)CC1)c1cnc(-c2ccccc2)nc1 | 0.05 ± 0.014 µM | –
4 | O=C(NC1CCN(Cc2ccccc2)CC1)c1ccc(-c2ccccc2)nc1 | 0.03 µM | –
5 | O=C(NC1CCN(Cc2ccccc2)CC1)c1ccc(-c2cccc(F)c2)nc1 | 0.03 µM | –
6 | O=C(Nc1ccc(N2CCOCC2)cc1)c1cnc(Oc2ccccc2)nc1 | 0.038 ± 0.011 µM | IC50 (H-PGDS [4]): 0.19 µM
7 | Cc1ccc2nc(NC(=O)N3CCN(C(=O)c4cccc(F)c4)CC3)sc2c1 | 0.308 ± 0.011 µM | IC50 (H-PGDS [5]): 0.001 to 0.01 µM
8 | Cc1[nH]c(C(=O)CCCc2ccccn2)c(C)c1-c1nc2cc(C(=O)c3ccccc3)ccc2[nH]1 | 0.025 ± 0.007 µM | IC50 (H-PGDS [4]): 0.072 µM
9 | c1ccc(-c2ncc(-c3cc[nH]n3)s2)cc1 | 0.438 ± 0.265 µM | –
10 | O=C(NCCNc1ccccc1)c1cnc(-c2ccccc2)nc1 [2-phenyl-N-(2-(phenylamino)ethyl)pyrimidine-5-carboxamide] | 0.375 ± 0.18 µM | –
11 | O=C(c1cnc(-c2ccccc2)nc1)N1CCNCC1 [(2-phenylpyrimidin-5-yl)(piperazin-1-yl)methanone] | 250 µM | –
12 | NCCNS(=O)(=O)c1cccc(CNC(=O)c2cnc(-c3ccccc3)nc2)c1 [Compound 19, N-(3-(N-(2-aminoethyl)sulfamoyl)benzyl)-2-phenylpyrimidine-5-carboxamide] | 0.2 to 0.3 µM | –
13 | COc1ccc(CNC(=O)c2ccc(-c3ccccc3)nc2)cc1OC [N-(3,4-dimethoxybenzyl)-6-phenylnicotinamide] | 0.575 ± 0.46 µM | –
14 | Cc1nc(-c2cccc(F)c2)sc1C(=O)NCc1ccccc1 [N-benzyl-2-(3-fluorophenyl)-4-methylthiazole-5-carboxamide] | 0.9 ± 0.14 µM | –
15 | COc1ccc(/C=C/C(=O)Nc2ccccc2C(=O)O)cc1OC [Tranilast] | – | IC50 against H-PGDS in known in vitro assays (H-PGDS [1]): micromolar
